In data set [1] the test system is Human immunodeficiency virus. As to the kind of experiment: Antiviral activity against HIV replication in H9 cells. In kind it is functional, organism-based. Particulars: Human immunodeficiency virus 1, H9.
The subject of the next data set is H9. As to the kind of experiment: Cytotoxicity against H9 cells assessed as growth inhibition. In kind it is cell-based. Particulars: Homo sapiens.
Data set [2] can be described thus: Therapeutic index, IC50 for H9 cells to EC50 for HIV. In kind it is cell-based. The settings on record: human, read-out: Ratio IC50/EC50.

Consider four compounds from ChEMBL document CHEMBL1140017, “Anti-AIDS agents 72. Bioisosteres (7-carbon-DCKs) of the potent anti-HIV lead DCK” (Bioorg Med Chem Lett, 2007).

Each structure is given as a SMILES string. Where only a bound is given, the exact number is not on record here.

Take `Cc1cc(=O)oc2c3c(ccc12)CC[C@H](OC(=O)C12CCC(C)(C(=O)O1)C2(C)C)[C@@H]3OC(=O)C12CCC(C)(C(=O)O1)C2(C)C` (stereo partly specified): in data set [1], the EC50 (usually the midpoint of the concentration-response curve) was 0.083 µM. Moreover, in the data set on H9, the concentration for half-maximal inhibition (IC50) (usually the concentration needed to halve the response being measured) came to 54.4 µM. In addition, the selectivity ratio in data set [2] turned out to be 659.

Take `CC12CCC(C(=O)O[C@H]3CCc4ccc5ccc(=O)oc5c4[C@H]3OC(=O)C34CCC(C)(C(=O)O3)C4(C)C)(OC1=O)C2(C)C` (stereo partly specified): the EC50 in data set [1] is 0.068 µM. The IC50 in the data set on H9 came out at 57.2 µM. Moreover, the selectivity ratio in data set [2] stood at 841.

In data set [1], `Cc1cc(=O)oc2c3c(ccc12)CC(C)(C)[C@H](OC(=O)C12CCC(C)(C(=O)O1)C2(C)C)[C@@H]3OC(=O)C12CCC(C)(C(=O)O1)C2(C)C` (stereo partly specified) displayed an EC50 below 0.39 µM. Also, in the data set on H9, the IC50 is above 39.4 µM. Also, in data set [2], the selectivity ratio was above 100.

Compound `Cc1cn([C@H]2C[C@H](N=[N+]=[N-])[C@@H](CO)O2)c(=O)[nH]c1=O` [ZIDOVUDINE] had an EC50 in data set [1] of 0.0137 µM. Also, in data set [2], the selectivity ratio was determined as 36500.
